Drawing on patent US9233961B2, “Compounds and compositions for the treatment of parasitic diseases” (Novartis AG, priority 2013, dated 2016), this text covers EC50 for 28 compounds.

Assay [1] has as its system L. donovani HU3 strain in mouse peritoneal macrophages. As to the kind of experiment: Assay for proliferation of Leishmania parasites in mouse peritoneal macrophages. The format is cell-based, Leishmania donovani. The procedure, abridged:
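BALB/c peritoneal macrophages infected 24 h with L. donovani HU3 amastigotes taken from spleens of mice infected 9–11 weeks, then treated with compound for 5 days at 37° C, 5% CO2. Parasite nuclei counted by SYBR Green imaging after fixation; EC50 from percentage inhibition.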

Assay [2] relates to Trypanosoma cruzi amastigotes (Tulahuen strain) cultured in 3T3 fibroblast cells. The experiment in a line: Assay for proliferation of kinetoplastid parasite Trypanosoma cruzi. In kind it is cell-based. Particulars: 144 h. An excerpt: Assay for Proliferation of Kinetoplastid Parasite Trypanosoma cruzi.
Compounds of the invention can be assayed to measure their capacity to inhibit proliferation of kinetoplastid parasite Trypanosoma cruzi. The screening procedure is for identifying compounds with inhibitor activity against Trypanosoma cruzi amastigotes cultured in 3T3 fibroblast cells. The assay is done using the mammalian stage (amastigotes) of T. cruzi that replicates in the intracellular space of host cells. The host cells are initially infected with the culture-derived trypomastigotes that rapidly invade and then divide as amastigotes. The protocol uses the Tulahuen strain of T. cruzi that has been engineered to express the E. coli beta-galactosidase gene (Lac-Z) (Antimicr. Agents Chemoth. 40:2592, 1996). This allows for a colorimetric readout by using the substrate CPRG and an absorbance plate reader.
3T3 fibroblast cells are re-suspended in RPMI-1640 medium without phenol red medium supplemented with 10% FBS (heat inactivated), 100 μg/ml penicillin, and 100 μg/ml streptomycin. Forty μL of suspension (1,000 cells) is dispensed into 384-well plates and incubated overnight at 37° C. temperature and in atmosphere containing 5% CO2. The following day, 100 nL of compounds of the invention in DMSO are added to plate wells containing 3T3 cells. At the same time control compounds (benznidazole and nifurtimox) and DMSO are added to plates to serve as the positive and negative controls, respectively. After that, 10 μL of media containing 10,000 T. cruzi trypomastigotes are added to each plate well and plates are placed back into incubators. After 6 day incubation, 10 μL of reagent solution (0.6 mM CPRG, 0.6% NP-40 in PBS) is added to plates and incubated at room temperature for 2 hours. Absorbance is then measured on SpectraMax Gemini […] to determine relative number of T. cruzi cells present in each plate well. The percentage inhibition of 50%, EC50, is calculated for each compound. […] Typically, the EC50 is 10 μM or less.

In assay [3] the test system is Leishmania donovani axenic amastigote parasites. As to the kind of experiment: Leishmania donovani axenic amastigote proliferation assay. Particulars: read-out: L. donovani amastigotes EC50. In kind it is cell-based. Put shortly: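 L. donovani axenic amastigotes (9600/well) in RPMI 1640 with 20% heat-inactivated FBS, folic acid, adenosine, glucose and 25 mM MES, pH 5.5, were incubated with compounds for 2 days at 37 °C, 5% CO2. Viability read by CellTiter-Glo luminescence; EC50 calculated.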

Assay [4] relates to Trypanosoma brucei Lister 427 strain bloodstream form. The experiment in a line: Assay for proliferation of kinetoplastid parasite Trypanosoma brucei. Particulars: read-out: T. brucei EC50. The format is cell-based. The procedure, abridged:
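Bloodstream-form T. brucei Lister 427 in HMI-9 medium was exposed to compound (DMSO vehicle) for 48 hours at 37° C, 5% CO2. Parasite growth was read as ATP by CellTiter-Glo luminescence, with EC50 calculated from percent inhibition.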

The mark [5] stands for this setting: Leishmania donovani, Peritoneal macrophage, read-out: L. donavani Macrophage EC50.
Setting [6] is: Tulahuen amastigotes in 3T3 fibroblast cells, 6 day incubation, read-out: T cruzi EC50.
Where [7] appears, read: Lister 427 bloodstream form, 48 hours.
Where [8] appears, read: TULAHUEN, Fibroblast, read-out: T cruzi EC50.
Where [9] appears, read: TULAHUEN, T. cruzi in 3T3 fibroblast cells, 6 day incubation, CPRG absorbance, read-out: EC50.

SMILES strings stand for the structures. Like-named read-outs stand apart in the source and are kept apart here.

A word on the EC50: it is the concentration giving half of the maximal effect. `O=C(Nc1ccc(Cl)c(-c2nc3ncc(C4=CCNCC4)cc3[nH]2)c1)c1ccco1` [Compound 70]: the EC50 in assay [1] (setting [5]) was 20800 nM; in assay [2] (setting [6]), 490 nM; in assay [3] (axenic amastigotes in vitro), 6000 nM; in assay [4] (setting [7]), 174 nM.
For `Cc1cnc2nc(-c3cc(NC(=O)c4ccccc4Cl)ccc3Cl)[nH]c2c1` [Compound 149], in that order: 9200 nM, 550 nM, over 25000 nM and 10900 nM.
For `COc1cccc(C(=O)Nc2ccc(Cl)c(-c3nc4ncc(C)cc4[nH]3)c2)c1` [Compound 134], the 50% effective concentration (EC50) in assay [1] (setting [5]) stood at 13900 nM; in assay [2] (setting [6]), 2590 nM; in assay [3] (axenic amastigotes in vitro), 21400 nM; in assay [4] (setting [7]), 890 nM.
`CON(C)C(=O)Nc1ccc(Cl)c(-c2nc3ncc(C)cc3[nH]2)c1` [Compound 240]: the EC50 in assay [1] (setting [5]) worked out at 6100 nM; in assay [2] (setting [6]), 700 nM; in assay [3] (axenic amastigotes in vitro), 2060 nM; in assay [4] (setting [7]), 450 nM.
The matching figures for `O=C(Nc1ccc(Cl)c(-c2nc3ncc(Br)cc3[nH]2)c1)c1cnccn1` [Compound 375]: over 42700 nM, 3900 nM, 7500 nM and 2350 nM.
The matching figures for `Cc1cnc2nc(-c3cc(NC(=O)c4cncnc4)ccc3Cl)[nH]c2c1` [Compound 187]: over 42200 nM, over 11500 nM, 6900 nM and 4200 nM.
For `Cc1cnc2nc(-c3cc(NC(=O)c4ccc(Cl)o4)ccc3Cl)[nH]c2c1` [Compound 86], in that order: 3090 nM, 69 nM, 840 nM and 183 nM.
In the case of `O=C(Nc1ccc(Cl)c(-c2nc3ncc(-c4cccnc4)cc3[nH]2)c1)c1ccco1` [Compound 50], the EC50 in assay [1] (setting [5]) was 1640 nM; in assay [2] (setting [6]), 53 nM; in assay [3] (axenic amastigotes in vitro), 134 nM; in assay [4] (setting [7]) it was 2.62 nM.
The matching figures for `Cc1cnc2nc(-c3cc(NC(=O)c4ccc[nH]4)ccc3Cl)[nH]c2c1` [Compound 100]: 6400 nM, 2170 nM, 6300 nM and 1420 nM.
As for `Cc1cnc2nc(-c3cc(NC(=O)NCCCCCCN(C)C)ccc3Cl)[nH]c2c1` [Compound 228], the EC50 in assay [1] (setting [5]) is over 50000 nM; in assay [2] (setting [6]), over 20000 nM; in assay [3] (axenic amastigotes in vitro), over 25000 nM; in assay [4] (setting [7]), over 25000 nM.
With `O=C(Nc1ccc(Cl)c(-c2nc3ncc(Br)cc3[nH]2)c1)C1CCCC1` [Compound 374], the EC50 in assay [1] (setting [5]) amounted to 5900 nM; in assay [2] (setting [6]), 850 nM; in assay [3] (axenic amastigotes in vitro), 16500 nM; in assay [4] (setting [7]), 5100 nM.
For `COCCOC(=O)Nc1ccc(Cl)c(-c2nc3ncc(-c4ccc5c(c4)CC(=O)N5)cc3[nH]2)c1` [Compound 379], in that order: 8700 nM, 13200 nM, 1490 nM and 690 nM.
The matching figures for `Cc1cnc2nc(-c3cc(NC(=O)c4ccc(C)o4)ccc3Cl)[nH]c2c1` [Compound 126]: 1630 nM, 148 nM, 1600 nM and 303 nM.
For `O=C(Cc1cccc(Cl)c1)Nc1ccc(Cl)c(-c2nc3ncc(C(F)(F)F)cc3[nH]2)c1` [Compound 280], in that order: 27400 nM, 3400 nM, 21200 nM and over 13600 nM.
`Cc1ccc(C(=O)Nc2ccc(Cl)c(-c3nc4ncc(C(F)(F)F)cc4[nH]3)c2)o1` [Compound 279]: the EC50 was 2250 nM in assay [1] (setting [5]), 141 nM in assay [2] (setting [6]), 570 nM in assay [3] (axenic amastigotes in vitro) and 311 nM in assay [4] (setting [7]).
`O=C(Nc1ccc(Cl)c(-c2nc3ncc(-c4ccccc4)cc3[nH]2)c1)N1CCCC1` [Example 291, N-(4-chloro-3-{6-phenyl-1H-imidazo[4,5-b]pyridin-2-yl}phenyl)pyrrolidine-1-carboxamide]: the concentration for a half-maximal effect (EC50) in assay [1] (L. donovani in mouse peritoneal macrophages, 5 days culture, SybrGreen parasite nuclei count, read-out: EC50) is about 80 nM; in assay [1] (Leishmania donovani, Peritoneal macrophage, 120 h, L. donovani in mouse peritoneal macrophages, 5 days culture, SybrGreen parasite nuclei count, read-out: EC50), 76 nM; in assay [2] (TULAHUEN, Fibroblast), 16 nM; in assay [2] (setting [8]) it was 16.1 nM; in assay [3] (axenic amastigotes in vitro), 76 nM; in assay [4] (setting [7]), 15.2 nM.
Consider `Cc1cnc2nc(-c3cc(NC(=O)Cc4cccc(Cl)c4)ccc3Cl)[nH]c2c1` [Compound 85], for which the EC50 was 21300 nM in assay [1] (setting [5]), over 11500 nM in assay [2] (setting [6]), over 25000 nM in assay [3] (axenic amastigotes in vitro) and 9300 nM in assay [4] (setting [7]).
The matching figures for `Cc1cnc2nc(-c3cc(NC(=O)c4cnc(Cl)cn4)ccc3Cl)[nH]c2c1` [Compound 135]: over 25900 nM, over 20000 nM, over 25000 nM and over 1510 nM.
The matching figures for `COCCOc1ccc(-c2cnc3nc(-c4cc(NC(=O)c5ccco5)ccc4Cl)[nH]c3c2)c(F)n1` [Compound 52]: over 14500 nM, 68 nM, 188 nM and 36 nM.
As to `Cc1cnc2nc(-c3cc(NC(=O)OC4CCCC4)ccc3Cl)[nH]c2c1` [Compound 218], the EC50 in assay [1] (setting [5]) is 7500 nM; in assay [2] (setting [6]), 2140 nM; in assay [3] (axenic amastigotes in vitro), over 25000 nM; in assay [4] (setting [7]) it was 14900 nM.
The matching figures for `Cc1cnc2nc(-c3cc(NC(=O)C4CCCO4)ccc3Cl)[nH]c2c1` (stereo not shown) [Compound 138]: over 50000 nM, over 20000 nM, over 25000 nM and over 25000 nM.
The matching figures for `Cc1cnc2nc(-c3cc(NC(=O)c4cccn4C)ccc3Cl)[nH]c2c1` [Compound 151]: 19500 nM, 3700 nM, 17100 nM and 1830 nM.
With `Cc1cnc2nc(-c3cc(NC(=O)c4cccc(Cl)c4)ccc3Cl)[nH]c2c1` [Compound 89], the EC50 is 9200 nM in assay [1] (setting [5]), 175 nM in assay [2] (setting [6]), 3700 nM in assay [3] (axenic amastigotes in vitro) and 260 nM in assay [4] (setting [7]).
As to `CN(C(=O)OC(C)(C)C)c1ccc(-c2cnc3nc(-c4cc(NC(=O)N5CCCC5)ccc4Cl)[nH]c3c2)cc1` [Compound 332, tert-butyl N-[4-(2-{2-chloro-5-[(pyrrolidin-1-yl)carbonylamino]phenyl}-1H-imidazo[4,5-b]pyridin-6-yl)phenyl]-N-methylcarbamate], in assay [2] (setting [9]), the concentration giving a half-maximal response (EC50) turned out to be 6 nM.
For `Cc1cnc2nc(-c3cc(NC(=O)NCCN(C(C)C)C(C)C)ccc3Cl)[nH]c2c1` [Compound 236], the EC50 is 28800 nM in assay [1] (setting [5]), 17900 nM in assay [2] (setting [6]), over 25000 nM in assay [3] (axenic amastigotes in vitro) and 1110 nM in assay [4] (setting [7]).
For `Cc1cnc2nc(-c3cc(NC(=O)c4ccc(S(C)(=O)=O)s4)ccc3Cl)[nH]c2c1` [Compound 175, N-(4-chloro-3-{6-methyl-1H-imidazo [4,5-b]pyridin-2-yl}phenyl)-5-methanesulfonylthiophene-2-carboxamide], the concentration giving a half-maximal response (EC50) was over 28900 nM in assay [1] (setting [5]); 67 nM in assay [2] (setting [6]); 67 nM in assay [2] (setting [9]); over 25000 nM in assay [3] (axenic amastigotes in vitro); over 20500 nM in assay [4] (setting [7]).
As to `CCOC(=O)Nc1ccc(Cl)c(-c2nc3ncc(Br)cc3[nH]2)c1` [Example 370, Ethyl N-(3-{6-bromo-1H-imidazo[4,5-b]pyridin-2-yl}-4-chlorophenyl)carbamate], the EC50 in assay [1] (setting [5]) was 7400 nM; in assay [2] (setting [8]) it was 1200 nM; in assay [3], 2530 nM; in assay [4] (48 h) it was 520 nM.
As to `Cc1cnc2nc(-c3cc(NC(=O)C4CCCCN4)ccc3Cl)[nH]c2c1` (stereo not shown) [Compound 171], the 50% effective concentration (EC50) was over 50000 nM in assay [1] (setting [5]), 7500 nM in assay [2] (setting [6]), over 25000 nM in assay [3] (axenic amastigotes in vitro) and over 7500 nM in assay [4] (setting [7]).
